Read-outs that look alike come from different tables or passages of the source.
Tests used:
[1] = system: spinal cord neurons (SCNs); experiment: Neurite outgrowth, MAP2 immunocytochemistry in SCNs; assay type: cell-based, C57BL/6 mice
Protocol: (§1) SCN cultures were performed as described previously. The dissociated neurons were planted into poly-L-lysine-coated 35 mm Petri dishes, 96-well plates at densities of 2 × 10^3 cells/dish for patch clamp, 2.25 × 10^5 and 2 × 10^3 cells/well for Ca^2+ imaging and neurite outgrowth experiments, respectively. Cells at 6–8 DIVs (days in vitro) were used to measure K^+ and Na^+ currents, membrane potential, or intracellular Ca^2+ concentration ([Ca^2+]i).
Immunocytochemistry was performed as described previously. After fixation, permeabilization, and blocking, neurons were incubated with primary antibody against MAP2 (1:1000) overnight at 4 °C and Alexa Fluor 488-conjugated goat anti-rabbit secondary antibody (1:1000) for 1 h at room temperature (RT), respectively. Hoechst 33,342 (1.6 μg/mL) was added into each well and incubated for 20 min to stain the nuclei. The images were captured by an eclipse inverted fluorescence microscope (Nikon, Tokyo, Japan). Neurites were manually tracked using ImageJ software (FIJI, version 1.51 g, NIH, Bethesda, MD, USA). Only the neurons with total neurite length ≥50 μm were used for quantification. The experiment was performed double blindly.

[2] = system: voltage-gated sodium channels (VGSCs), Na+ currents in SCNs; experiment: Na+ currents, whole-cell patch clamp in SCNs; assay type: cell-based, C57BL/6 mice
Protocol: as §1
(§2) Current-clamp recordings can provide useful information about the contribution of a channel to membrane potential. Membrane potentials, Na^+ and K^+ currents in SCNs (6–8 DIVs), were recorded using whole-cell patch clamp using an EPC-10 amplifier and PatchMaster software (HEKA, Pfalz, Germany). Pipettes were pulled from 1.5 mm capillary tubing using a P-1000 puller (Sutter Instrument, Novato, CA, USA). The pipette resistance was 2–4 MΩ.
(§3) For current-clamp recordings, to record changes in membrane potential, patch pipettes were filled with intracellular solution containing the following (in mM): KCl 140, MgCl2 5, CaCl2 2.5, EGTA 5, ATP 4, GTP 0.3, and HEPES 10 (pH adjusted to 7.3 with KOH). The external solution contained the following (in mM): NaCl 140, MgCl2 1, KCl 5, CaCl2 2, glucose 10, and HEPES 10 (pH adjusted to 7.3 with NaOH). The membrane potentials were recorded by a 0 pA input current with a duration of 1 s. For voltage-clamp recordings, to record potassium currents, patch pipettes were filled with an internal solution containing (in mM): KCl 140, CaCl2 1, MgCl2 2.5, HEPES 10, EGTA 11, and ATP 4, and pH was adjusted to 7.2 with KOH. Cells were bathed in an external solution containing the following (in mM): choline chloride 150, KCl 5, MgCl2 1, HEPES 10, D-glucose 10, and NMDG 2, and pH was adjusted to 7.4 with KOH. […] Data were collected and analyzed using PatchMaster (HEKA Electronics, Pfalz, Germany) and SigmaPlot (version 10.3, Sigma-Aldrich). […]

[3] = system: spinal cord neurons (SCNs); experiment: Spontaneous calcium oscillation (SCO) measurement, FLIPR Tetra, primary cultured spinal cord neurons; assay type: cell-based, C57BL/6 mice; conditions: 6-8 DIV, N = 4 wells; for EC50: primary cultured SCNs, FLIPR Tetra, Hill slope = 1.0
Protocol: as §1
The intracellular Ca^2+ concentration [Ca^2+]i of SCNs was measured using FLIPR^Tetra® system (Molecular Devices, Sunnyvale, CA, USA) as described previously.
All data were presented as mean ± SEM. Graphing and data analysis were performed using GraphPad Prism software (Version 6.0, San Diego, CA, USA). Concentration–response curves were fitted by a nonlinear logistic equation. The IC50 values and 95% confidence intervals (CI) were determined by nonlinear regression using GraphPad Prism software. Statistical significance between different groups was calculated using an ANOVA and, where appropriate, a Dunnett′s multiple comparison test. A p-value below 0.05 was considered statistically significant.

[4] = system: spinal cord neurons (SCNs), membrane potential; experiment: Membrane potential, whole-cell current-clamp recording in SCNs; assay type: cell-based, C57BL/6 mice
Protocol: as §1, §2
For current-clamp recordings, to record changes in membrane potential, patch pipettes were filled with intracellular solution containing the following (in mM): KCl 140, MgCl2 5, CaCl2 2.5, EGTA 5, ATP 4, GTP 0.3, and HEPES 10 (pH adjusted to 7.3 with KOH). […] The membrane potentials were recorded by a 0 pA input current with a duration of 1 s. […] Data were collected and analyzed using PatchMaster (HEKA Electronics, Pfalz, Germany) and SigmaPlot (version 10.3, Sigma-Aldrich). […]

[5] = system: Kv channels, delayed-rectifier (ID) currents in SCNs; experiment: Sustained delayed-rectifier K+ current ID, whole-cell patch clamp in SCNs; assay type: cell-based, C57BL/6 mice
Protocol: as §1, §2, §3
(§4) All data were presented as mean ± SEM. […] Statistical significance between different groups was calculated using an ANOVA and, where appropriate, a Dunnett′s multiple comparison test. […]

[6] = system: protein kinase B (Akt) phosphorylation in SCNs; experiment: Akt phosphorylation in SCNs, Western blot; assay type: cell-based, C57BL/6 mice; conditions: 30 nM, n = 4
Protocol: Equal amounts (30 μg) of cell lysates were loaded onto a 10% SDS-PAGE gel and transferred to a nitrocellulose membrane by electroblotting. After blocking, the blots were incubated with primary antibodies against p-Akt (1:1000) overnight at 4 °C and then incubated with the IRDye (680 RD or 800 CW)-labeled secondary antibodies (1:10,000) for 1 h at RT. The membranes were scanned and densitometry was quantified using LI-COR Odyssey Infrared Imaging System and its application software (version 2.1, LI-COR Biotechnology). The membranes were stripped with stripping buffer (LI-COR Biotechnology) and reblotted for analysis of the expression of Akt. Beta-tubulin (1:10,000) was used as a loading control.

[7] = system: Kv channels, transient (IA) currents in SCNs; experiment: Transient K+ current IA, whole-cell patch clamp in SCNs; assay type: cell-based, C57BL/6 mice
Protocol: as §1, §2, §3, §4

[8] = system: Kv channels, outward K+ currents (IK) in SCNs; experiment: Outward K+ current IK (IA + ID), whole-cell patch clamp in SCNs; assay type: cell-based, C57BL/6 mice
Protocol: as §1, §2
For current-clamp recordings, to record changes in membrane potential, patch pipettes were filled with intracellular solution containing the following (in mM): KCl 140, MgCl2 5, CaCl2 2.5, EGTA 5, ATP 4, GTP 0.3, and HEPES 10 (pH adjusted to 7.3 with KOH). The external solution contained the following (in mM): NaCl 140, MgCl2 1, KCl 5, CaCl2 2, glucose 10, and HEPES 10 (pH adjusted to 7.3 with NaOH). The membrane potentials were recorded by a 0 pA input current with a duration of 1 s. For voltage-clamp recordings, to record potassium currents, patch pipettes were filled with an internal solution containing (in mM): KCl 140, CaCl2 1, MgCl2 2.5, HEPES 10, EGTA 11, and ATP 4, and pH was adjusted to 7.2 with KOH. Cells were bathed in an external solution containing the following (in mM): choline chloride 150, KCl 5, MgCl2 1, HEPES 10, D-glucose 10, and NMDG 2, and pH was adjusted to 7.4 with KOH. To record sodium currents, patch pipettes were filled with an internal solution containing the following (in mM): CsF 135, HEPES 5, and NaCl 10, and pH was adjusted to 7.2 with CsOH. Cells were bathed in external solution containing the following (in […]): NaCl 30, MgCl2 1, CaCl2 1.8, CsCl 5, D-glucose 25, KCl 5, HEPES 5, TEACl 90, and KCl 5, and pH was adjusted to 7.4 with NaOH. Capacitance and series resistance were compensated using computer-controlled circuitry of the amplifier. The outward potassium currents (IK), which contain both transient (IA) and sustained delayed-rectifier (ID) components, were elicited by a series of depolarizing pulses from −110 mV to the potentials ranged from −60 to +80 mV in a 10 mV increment. To record the ID currents, voltages were stepped to the potentials ranged from −60 to +80 mV in a 10 mV increment from a 200 ms pre-depolarization potential of −40 mV that inactivated IA currents. IA currents were obtained by subtracting ID currents from IK currents. Na^+ currents were elicited by depolarization steps from a holding potential of −100 mV to +45 mV in a 5 mV increment. Data were collected and analyzed using PatchMaster (HEKA Electronics, Pfalz, Germany) and SigmaPlot (version 10.3, Sigma-Aldrich). Concentration–response curves were fitted using the Hill equation: Inor= C + A/[1 + ([BmK NSPK]/EC50)^p] […]
as §4

[9] = system: nerve growth factor (NGF) release in SCNs; experiment: NGF release into culture medium of SCNs, ELISA; assay type: cell-based, C57BL/6 mice; conditions: 10 nM, n = 4
Protocol: The NGF levels in the culture medium were determined by enzyme-linked immunosorbent assay (ELISA) kits according to the manufacturer’s instructions.

PC12 cells = conditions: via TrkA receptors; ref [38]; cited from earlier work
sensory neurons = conditions: via TrkA receptors; ref [39]; cited from earlier work

Compound: Cn1cc(/C=C2\C(=O)Nc3cccnc32)c2ccccc21 [GW 441756, reference compound]
- Effect on BmK NSPK-induced neurite outgrowth ([1]; GW 441756 1 μM added 30 min before BmK NSPK (10 nM), 48 h, p < 0.01 vs. BmK NSPK): abolished BmK NSPK-induced neurite outgrowth

Compound: NC1=N[C@H](O)[C@H]2[C@H]3O[C@]4(O)O[C@@H]([C@@H](O)[C@@]2(N1)[C@@H]4O)[C@]3(O)CO [tetrodotoxin, reference compound]
- Effect on Na+ currents [2]: suppressed the Na^+ currents

Compound: BmK NSPK: new short-chain scorpion peptide purified from Buthus martensii Karsch venom, Kv channel inhibitor, sequence by Edman degradation (VGKNVICIHSGQCLIPCIDAGMRFGICKNGICDCTPKG)
- Effect on amplitude and frequency of SCOs ([3]; SCNs): rapid and sustained increase in both the amplitude and frequency of SCOs
- EC50 ([3]; 95% CI 2.22–17.4 nM, read-out: EC50 for increase in SCO frequency): 6.22 nM
- EC50 ([3]; 95% CI 4.00–45.1 nM, read-out: EC50 for increase in SCO amplitude): 13.4 nM
- Apparent affinity for membrane depolarization (and SCO increase) ([4]; SCN cultures, discussion wording): low apparent nanomolar affinity
- Effect on membrane potential ([4]; SCNs, 6-8 DIV, 0 pA input, whole-cell current clamp): concentration-dependent membrane depolarization
- Effect on ID currents ([5]; 300 nM, potentials −60 to +80 mV after 200 ms pre-depolarization at −40 mV): inhibited ID currents elicited by a series of depolarization potentials with voltage dependence
- Maximal inhibition of ID currents ([5]; Figure 4J): ~ 43%
- IC50 ([5]; depolarization from -40 mV to +70 mV, 95% CI 0.68–7.44 nM, Hill slope = −0.86, N = 4–5 neurons, read-out: IC50, suppression of ID currents): 2.24 nM
- Effect on Na+ currents ([2]; 1000 nM, holding −100 mV to +45 mV in 5 mV increments, N = 4–5 neurons): no effect on the Na^+ currents
- Effect on VGSCs ([2]; discussion wording): little effect on VGSCs
- Duration of Akt phosphorylation increase [6]: ≥ 30 min
- Onset of Akt phosphorylation increase [6]: ≤ 5 min
- Phosphorylated levels of Akt ([6]; p < 0.01 vs. Veh): rapidly increased phosphorylated levels of Akt
- Concentration of maximal stimulation of neurite extension ([1]; 48 h exposure commencing 5 h post-plating): ~ 10 nM
- Effect on neurite extension ([1]; 48 h exposure commencing 5 h post-plating, MAP2 staining): stimulated neurite extension in cultured SCNs in a nonmonotonic manner
- Effect on IA currents ([7]; 300 nM, each depolarizing potential): suppressed IA currents at each depolarizing potential
- Maximal inhibition of IA currents ([7]; Figure 4J): ~ 75%
- IC50 ([7]; IA = IK minus ID, 95% CI 0.41–2.13 nM, Hill slope = −1.27, N = 4–5 neurons, read-out: IC50, suppression of IA currents): 0.93 nM
- Voltage dependence of IK inhibition ([8]; 300 nM): voltage-dependent
- Effect on IK currents ([8]; 300 nM, depolarizing potentials −60 to +80 mV from holding −110 mV): inhibited the IK currents at all depolarized potentials
- IC50 ([8]; depolarization from -110 mV to +70 mV, 95% CI 0.68–8.61 nM, Hill slope = −0.86, N = 4–5 neurons, read-out: IC50, suppression of IK currents): 2.42 nM
- Potency on outward potassium channel currents ([8]; discussion wording, SCNs): single-digit nanomolar concentrations
- Completeness of inhibition of IK, IA and ID currents ([8]; highest concentration (100 nM)): incomplete even at the highest concentration (100 nM)
- Duration of NGF release [9]: at least 8 h
- Increase in NGF release ([9]; p < 0.05 vs. Veh): ~ 50%

Compound: nerve growth factor [NGF]
- Effect on neurite extension (PC12 cells): enhance the neurite extension
- Effect on neurite extension (sensory neurons): enhance the neurite extension
